Experiment [1] has as its target T1, Prothrombin (Homo sapiens, UniProt P00734). Description: Inhibition of thrombin.
The target of experiment [2] is T2, Suppressor of tumorigenicity 14 protein (Homo sapiens, UniProt Q9Y5Y6).
T2 sequence (Q9Y5Y6 whole entry): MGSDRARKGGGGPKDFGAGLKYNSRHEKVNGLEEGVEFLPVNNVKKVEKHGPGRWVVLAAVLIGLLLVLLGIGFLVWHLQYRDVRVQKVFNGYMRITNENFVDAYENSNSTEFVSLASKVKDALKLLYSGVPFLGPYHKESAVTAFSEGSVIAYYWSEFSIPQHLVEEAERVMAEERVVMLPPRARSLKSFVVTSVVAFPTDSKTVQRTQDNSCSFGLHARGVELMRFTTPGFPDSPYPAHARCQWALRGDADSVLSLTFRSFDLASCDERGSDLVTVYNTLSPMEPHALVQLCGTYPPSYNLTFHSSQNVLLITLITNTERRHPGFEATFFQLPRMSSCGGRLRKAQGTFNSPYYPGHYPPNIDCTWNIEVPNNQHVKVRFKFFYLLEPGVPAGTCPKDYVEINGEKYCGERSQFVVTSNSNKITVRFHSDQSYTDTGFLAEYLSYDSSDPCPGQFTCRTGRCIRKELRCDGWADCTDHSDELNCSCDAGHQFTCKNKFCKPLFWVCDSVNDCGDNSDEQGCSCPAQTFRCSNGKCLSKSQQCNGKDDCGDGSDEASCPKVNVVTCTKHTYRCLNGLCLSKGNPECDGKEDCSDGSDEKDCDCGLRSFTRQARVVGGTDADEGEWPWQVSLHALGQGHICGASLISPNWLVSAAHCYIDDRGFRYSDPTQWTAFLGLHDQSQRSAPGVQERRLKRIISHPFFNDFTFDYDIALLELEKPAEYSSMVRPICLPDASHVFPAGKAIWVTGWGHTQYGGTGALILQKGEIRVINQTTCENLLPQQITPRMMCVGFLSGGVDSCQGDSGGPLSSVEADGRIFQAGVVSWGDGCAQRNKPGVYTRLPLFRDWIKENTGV

Experiment [3] deals with Plasminogen (Homo sapiens, UniProt P00747). Description: Inhibition of plasmin.
Experiment [4] concerns the target T1, Prothrombin. The conditions noted are these: Blood.
The target in experiment [5] is Urokinase-type plasminogen activator (Homo sapiens, UniProt P00749). Description: Inhibition of uPA.
For experiment [6], the target named is Coagulation factor X (Homo sapiens, UniProt P00742). Description: Inhibition of f10a.
The nature of experiment [7]: Anticoagulant activity in blood by aPTT assay. Format: functional, Homo sapiens.
The target in experiment [8] is Coagulation factor VII/tissue factor (Homo sapiens) (UniProt P08709+P13726). The settings on record: Blood.
Description: Anticoagulant activity in blood by PT assay

Data on 22 compounds can be found in ChEMBL document CHEMBL1138903, “Secondary amides of sulfonylated 3-amidinophenylalanine. New potent and selective inhibitors of matriptase” (J Med Chem, 2006).

The structures appear in SMILES notation.

A word on the Ki: it is a dissociation constant, usually derived from enzyme kinetics or from competition with a known ligand. The low end stands for a stronger hold on the target, the high end for a looser hold on the target.

Plasminogen, sequence (P00747 97-580 limits assumed): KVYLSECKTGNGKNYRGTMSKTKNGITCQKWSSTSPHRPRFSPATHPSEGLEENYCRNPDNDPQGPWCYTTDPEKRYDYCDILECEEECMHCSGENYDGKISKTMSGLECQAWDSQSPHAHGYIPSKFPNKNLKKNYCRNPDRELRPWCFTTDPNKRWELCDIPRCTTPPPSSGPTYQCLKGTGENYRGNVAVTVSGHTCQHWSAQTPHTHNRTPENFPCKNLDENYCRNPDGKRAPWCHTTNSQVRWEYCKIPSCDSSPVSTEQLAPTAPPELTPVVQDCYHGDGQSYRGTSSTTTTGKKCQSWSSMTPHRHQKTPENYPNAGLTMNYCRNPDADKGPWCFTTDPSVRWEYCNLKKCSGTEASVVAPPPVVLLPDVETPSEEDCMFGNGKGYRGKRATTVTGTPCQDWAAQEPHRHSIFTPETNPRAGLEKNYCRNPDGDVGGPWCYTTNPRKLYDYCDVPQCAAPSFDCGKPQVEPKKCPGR
Plasminogen, sequence (P00747 581-810 limits assumed): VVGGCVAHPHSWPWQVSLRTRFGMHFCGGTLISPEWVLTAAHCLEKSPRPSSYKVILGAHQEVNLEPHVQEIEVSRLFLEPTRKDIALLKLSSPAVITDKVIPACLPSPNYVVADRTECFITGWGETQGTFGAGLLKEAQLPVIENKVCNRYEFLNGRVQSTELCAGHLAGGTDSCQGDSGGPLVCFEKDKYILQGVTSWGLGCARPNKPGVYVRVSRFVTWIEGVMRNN
Coagulation factor X, sequence (P00742 41-179 limits assumed): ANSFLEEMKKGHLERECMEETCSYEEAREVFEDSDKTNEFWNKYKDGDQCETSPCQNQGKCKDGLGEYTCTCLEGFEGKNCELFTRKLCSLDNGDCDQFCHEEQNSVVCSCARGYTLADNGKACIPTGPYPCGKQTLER
Coagulation factor X, sequence (P00742 235-488 limits assumed): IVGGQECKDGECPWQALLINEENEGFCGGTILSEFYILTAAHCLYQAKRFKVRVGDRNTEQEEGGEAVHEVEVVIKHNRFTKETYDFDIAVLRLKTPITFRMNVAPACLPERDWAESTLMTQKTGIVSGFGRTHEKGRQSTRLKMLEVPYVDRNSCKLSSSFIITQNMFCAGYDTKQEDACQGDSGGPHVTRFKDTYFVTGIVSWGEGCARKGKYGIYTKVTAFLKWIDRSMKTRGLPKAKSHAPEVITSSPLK

With `N=C(N)c1cccc(C[C@H](NS(=O)(=O)c2cccc(NC(=O)CCN)c2)C(=O)N2CCC(CCCN=C(N)N)CC2)c1`, the Ki in experiment [1] worked out at 4 µM; in experiment [2], 0.0015 µM; in experiment [3], 2.8 µM; in experiment [5], 1.8 µM; in experiment [6] it was 13 µM. Besides, the IC200 in experiment [4], in experiment [7] and in experiment [8] was over 10 µM in each case.

As for `N=C(N)NCCC(=O)N1CCN(C(=O)[C@H](Cc2cccc(C(=N)N)c2)NS(=O)(=O)Cc2ccc3ccccc3c2)CC1`, the Ki in experiment [1] amounted to 2.6 µM; in experiment [2], 0.4 µM; in experiment [3], 12 µM; in experiment [5], 43 µM; in experiment [6], 130 µM.

Regarding `N=C(N)NCCC(=O)N1CCN(C(=O)[C@H](Cc2cccc(C(=N)N)c2)NS(=O)(=O)c2ccc3ccccc3c2)CC1`, the Ki in experiment [1] stood at 1.4 µM; in experiment [2], 0.21 µM; in experiment [3] it was 2.8 µM; in experiment [5], 6.9 µM; in experiment [6], 56 µM.

Consider `N=C(N)NCCC(=O)N1CCN(C(=O)[C@H](Cc2cccc(C(=N)N)c2)NS(=O)(=O)c2ccc(C3CCCCC3)cc2)CC1`, for which the Ki was determined as 0.12 µM in experiment [1]; 0.089 µM in experiment [2]; 0.78 µM in experiment [3]; 10.5 µM in experiment [5]; 2.3 µM in experiment [6].

In the case of `CC(C)c1cc(C(C)C)c(S(=O)(=O)N[C@@H](Cc2cccc(C(=N)N)c2)C(=O)N2CCNCC2)c(C(C)C)c1`, the Ki in experiment [1] amounted to 1.3 µM; in experiment [2], 0.1 µM; in experiment [3], 0.8 µM; in experiment [5], 0.87 µM; in experiment [6], 4.6 µM.

For the compound `N=C(N)c1cccc(C[C@H](NS(=O)(=O)c2cccc3ccccc23)C(=O)N2CCC(CCN=C(N)N)CC2)c1`, the Ki was 0.19 µM in experiment [1]; 0.072 µM in experiment [2]; 1.7 µM in experiment [3]; 2.3 µM in experiment [5]; 13 µM in experiment [6].

Turning to `N=C(N)NCCC1CCN(C(=O)[C@H](Cc2cccc(C(=N)N)c2)NS(=O)(=O)c2ccc(Oc3ccccc3)nc2)CC1`, the Ki came out at 0.099 µM in experiment [1]; 0.013 µM in experiment [2]; 1.4 µM in experiment [3]; 3.4 µM in experiment [5]; 2.2 µM in experiment [6]. Moreover, the IC200 turned out to be 0.27 µM in experiment [4], 1.5 µM in experiment [7] and 1.6 µM in experiment [8].

Take `N=C(N)NCCC(=O)Nc1cccc(S(=O)(=O)N[C@@H](Cc2cccc(C(=N)N)c2)C(=O)N2CCC(CCNC(=N)N)CC2)c1`: the Ki came out at 4 µM in experiment [1]; 0.0042 µM in experiment [2]; 1.8 µM in experiment [3]; 1.2 µM in experiment [5]; 2 µM in experiment [6].

As for `N=C(N)NCCNC(=O)C1CCN(C(=O)[C@H](Cc2cccc(C(=N)N)c2)NS(=O)(=O)c2ccc3c(c2)C(=O)c2ccccc2C3=O)CC1`, the Ki in experiment [1] came to 0.42 µM; in experiment [2], 0.013 µM; in experiment [3], 4.1 µM; in experiment [5], 3.6 µM; in experiment [6], 4.9 µM.

In the case of `N=C(N)c1cccc(C[C@H](NS(=O)(=O)c2ccc3ccccc3c2)C(=O)N2CCC(CCCN)CC2)c1`, the Ki in experiment [1] amounted to 0.6 µM; in experiment [2], 0.16 µM; in experiment [3], 0.73 µM; in experiment [5] it was 2.1 µM; in experiment [6], 66 µM.

For the compound `CC(C)c1cc(C(C)C)c(S(=O)(=O)N[C@@H](Cc2cccc(C(=N)N)c2)C(=O)N2CCN(C(=O)CCN=C(N)N)CC2)c(C(C)C)c1`, the Ki in experiment [1] stood at 1.6 µM; in experiment [2] it was 0.057 µM; in experiment [3], 1.4 µM; in experiment [5] it was 0.82 µM; in experiment [6] it was 2.9 µM.

On to `N=C(N)c1cccc(C[C@H](NS(=O)(=O)c2cccc(NC(=O)CCN)c2)C(=O)N2CCC(CCN=C(N)N)CC2)c1`, for which the Ki in experiment [1] is 6 µM; in experiment [2], 0.0018 µM; in experiment [3], 5 µM; in experiment [5], 1.7 µM; in experiment [6], 9.5 µM.

In the case of `N=C(N)NCCC(=O)Nc1ccc(S(=O)(=O)N[C@@H](Cc2cccc(C(=N)N)c2)C(=O)N2CCC(CCNC(=N)N)CC2)cc1`, the inhibitory constant (Ki) in experiment [1] stood at 1.8 µM; in experiment [2], 0.0087 µM; in experiment [3] it was 1.2 µM; in experiment [5], 0.6 µM; in experiment [6] it was 10 µM.

Turning to `CC(C)c1cc(C(C)C)c(S(=O)(=O)N[C@@H](Cc2cccc(C(=N)N)c2)C(=O)N2CCC(C(=O)NCCN)CC2)c(C(C)C)c1`, the Ki in experiment [1] worked out at 16 µM; in experiment [2], 0.38 µM; in experiment [3], 0.94 µM; in experiment [5], 1.2 µM; in experiment [6], 6.3 µM.

As to `CCC(C)(C)c1ccc(S(=O)(=O)N[C@@H](Cc2cccc(C(=N)N)c2)C(=O)N2CCN(C(=O)CCN=C(N)N)CC2)cc1`, the Ki is 0.26 µM in experiment [1]; 0.2 µM in experiment [2]; 2.5 µM in experiment [3]; 18 µM in experiment [5]; 8.3 µM in experiment [6].

As for `N=C(N)NCCC1CCN(C(=O)[C@H](Cc2cccc(C(=N)N)c2)NS(=O)(=O)c2ccc(C3CCCCC3)cc2)CC1`, the Ki in experiment [1] was determined as 0.051 µM; in experiment [2], 0.088 µM; in experiment [3] it was 2 µM; in experiment [5], 1.9 µM; in experiment [6] it was 1.8 µM.

Take `CC(C)c1cc(C(C)C)c(S(=O)(=O)N[C@@H](Cc2cccc(C(=N)N)c2)C(=O)N2CCCN(C(=O)CCN=C(N)N)CC2)c(C(C)C)c1`: the Ki in experiment [1] was found to be 0.62 µM; in experiment [2], 0.065 µM; in experiment [3], 0.44 µM; in experiment [5] it was 0.81 µM; in experiment [6], 1.2 µM.

As to `CC(C)c1cc(C(C)C)c(S(=O)(=O)NC(Cc2cccc(C(=N)N)c2)C(=O)N2CCN(C(=O)CN)CC2)c(C(C)C)c1` (racemic), the Ki in experiment [1] turned out to be 0.2 µM; in experiment [2] it was 0.69 µM; in experiment [3], 3.4 µM; in experiment [5] it was 8.9 µM; in experiment [6], 10.5 µM.

Regarding `N=C(N)c1cccc(C[C@H](NS(=O)(=O)c2ccc(Cc3ccncc3)cc2)C(=O)N2CCC(CCN=C(N)N)CC2)c1`, the Ki in experiment [1] was 0.27 µM; in experiment [2], 0.053 µM; in experiment [3] it was 0.84 µM; in experiment [5] it was 3.6 µM; in experiment [6], 2.3 µM.

Turning to `N=C(N)NCCC1CCN(C(=O)[C@H](Cc2cccc(C(=N)N)c2)NS(=O)(=O)c2ccc(Oc3ccccc3)cc2)CC1`, the Ki in experiment [1] is 0.21 µM; in experiment [2] it was 0.038 µM; in experiment [3], 0.76 µM; in experiment [5] it was 2.3 µM; in experiment [6], 1 µM.

As for `Cc1c(C)c(S(=O)(=O)N[C@@H](Cc2cccc(C(=N)N)c2)C(=O)N2CCN(C(=O)CCN=C(N)N)CC2)c(C)c2c1OC(C)(C)C2`, the inhibition constant (Ki) in experiment [1] is 3 µM; in experiment [2], 0.73 µM; in experiment [3], 10.2 µM; in experiment [5], 25 µM; in experiment [6], over 1000 µM.

As to `CC(C)c1cc(C(C)C)c(S(=O)(=O)N[C@@H](Cc2cccc(C(=N)N)c2)C(=O)N2CCN(C(=O)CCCN=C(N)N)CC2)c(C(C)C)c1`, the Ki in experiment [1] stood at 4.2 µM; in experiment [2] it was 0.061 µM; in experiment [3] it was 0.88 µM; in experiment [5], 0.26 µM; in experiment [6], 2.8 µM.
